We go through eleven compounds from DBAASP.

Converted amounts (≈) assume the structure as drawn. A value given as a limit tells only on which side of the number the result lay.

Among the test systems are Micrococcus luteus; Saccharomyces cerevisiae; Escherichia coli B; Bacillus subtilis 168; Staphylococcus aureus; Pseudomonas aeruginosa.
Common to all, as to experiment: ≥ marks a high value that may be exact or a test limit, other limits are often not marked, values filed in µg/mL are converted to µM
Experiment [1] has as its system Staphylococcus aureus NCTC 10788.
Experiment [2] deals with Escherichia coli NCTC 10418.
The test system of experiment [3] is Candida albicans NCPF 1467.
In experiment [4] the test system is Pseudomonas aeruginosa ATCC 15692.
In experiment [5] the test system is Staphylococcus aureus ATCC 25923.
Experiment [6] concerns Escherichia coli ATCC 25922.
Experiment [7] concerns Candida albicans F7-39/IDE99.
Experiment [8] relates to Micrococcus luteus CCM 144.
In experiment [9] the test system is Pseudomonas aeruginosa H1001.
The test system of experiment [10] is Staphylococcus epidermidis ATCC 12228.
Experiment [11] concerns Enterococcus faecalis ATCC 29212.
For experiment [12], the system named is Staphylococcus aureus ATCC 29213.
The subject of experiment [13] is Salmonella enterica subsp. enterica serovar Typhimurium C77-31.
Experiment [14] deals with Salmonella enterica subsp. enterica serovar Pullorum C79-13.

With `CC[C@H](C)[C@H](NC(=O)CNC(=O)[C@@H]1CCCN1C(=O)[C@H](CC(C)C)NC(=O)[C@H](C)NC(=O)[C@H](CC(N)=O)NC(=O)[C@H](CCCCN)NC(=O)[C@@H](NC(=O)[C@@H](NC(=O)[C@H](CO)NC(=O)[C@H](CC(C)C)NC(=O)[C@@H](NC(=O)CN)C(C)C)C(C)C)[C@@H](C)CC)C(=O)N[C@@H](CCSC)C(=O)N[C@@H](CCCN=C(N)N)C(=O)N[C@@H](Cc1ccccc1)C(=O)N[C@H](C(=O)N[C@@H](C)C(N)=O)[C@@H](C)CC` [GVLSVIKNALPGIMRFIA], the MIC was 4.21 µM (≈ 8 µg/mL) in experiment [1], at least 33.7 µM in experiment [2] and 4.21 µM (≈ 8 µg/mL) in [3].

In the case of `CC[C@H](C)[C@H](NC(=O)[C@@H]1CCCN1C(=O)[C@H](CCC(N)=O)NC(=O)[C@@H](NC(=O)[C@H](CC(C)C)NC(=O)[C@H](CCCCN)NC(=O)[C@@H]1CCCN1C(=O)CNC(=O)[C@H](CC(C)C)NC(=O)[C@H](CCC(N)=O)NC(=O)[C@H](CCSC)NC(=O)[C@H](C)NC(=O)[C@H](CCCCN)NC(=O)[C@H](CCCN=C(N)N)NC(=O)[C@H](CC(C)C)NC(=O)[C@@H](NC(=O)[C@H](CCCCN)NC(=O)CNC(=O)[C@H](Cc1ccccc1)NC(=O)[C@@H](NC(=O)[C@@H]1CCCN1C(=O)[C@H](CC(C)C)NC(=O)[C@H](Cc1c[nH]c2ccccc12)NC(=O)CN)[C@@H](C)O)[C@@H](C)CC)[C@@H](C)CC)C(=O)O` [GWLPTFGKILRKAMQLGPKLIQPI], the MIC is 1 µM (≈ 2.71 µg/mL) against Micrococcus luteus; at least 32 µM in the experiment on Saccharomyces cerevisiae; 11.3 µM (≈ 30.6 µg/mL) in experiment [4]; 16 µM (≈ 43.3 µg/mL) in [5]; 1.41 µM (≈ 3.83 µg/mL) in experiment [6].

On to `CC[C@H](C)[C@H](NC(=O)[C@H](C)NC(=O)[C@H](CCCCN)NC(=O)[C@H](Cc1c[nH]c2ccccc12)NC(=O)[C@H](CC(N)=O)NC(=O)[C@@H](N)CCCCN)C(=O)N[C@@H](CC(C)C)C(=O)N[C@@H](CCCCN)C(=O)N[C@@H](Cc1cnc[nH]1)C(=O)N[C@H](C(=O)N[C@H](C(=O)N[C@@H](CCCCN)C(N)=O)[C@@H](C)CC)[C@@H](C)CC` [KNWKAILKHIIK], for which the MIC in the experiment on Escherichia coli B was found to be 7.8 µM (≈ 11.6 µg/mL); with Bacillus subtilis 168, 2.5 µM (≈ 3.73 µg/mL); in experiment [7], 8 µM (≈ 11.9 µg/mL); in the experiment with Staphylococcus aureus, 65 µM (≈ 96.9 µg/mL); in experiment [8], 5 µM (≈ 7.45 µg/mL); in the experiment on Pseudomonas aeruginosa it was 65 µM (≈ 96.9 µg/mL).

Regarding `CC[C@H](C)[C@H](NC(=O)[C@H](C)NC(=O)CNC(=O)[C@H](Cc1c[nH]c2ccccc12)NC(=O)[C@H](CC(N)=O)NC(=O)[C@@H](N)CC(C)C)C(=O)N[C@@H](CC(C)C)C(=O)N[C@@H](CCCCN)C(=O)N[C@@H](Cc1cnc[nH]1)C(=O)N[C@H](C(=O)N[C@H](C(=O)N[C@@H](CCCCN)C(N)=O)[C@@H](C)CC)[C@@H](C)CC` [LNWGAILKHIIK], the MIC against Escherichia coli B came out at 3.7 µM (≈ 5.2 µg/mL); in the experiment with Bacillus subtilis 168 it was 1.3 µM (≈ 1.83 µg/mL); in [7], 7.3 µM (≈ 10.3 µg/mL); in the experiment with Staphylococcus aureus, 10.6 µM (≈ 14.9 µg/mL); in [8] it was 1.5 µM (≈ 2.11 µg/mL); in the experiment on Pseudomonas aeruginosa, 51.7 µM (≈ 72.6 µg/mL).

The compound `CC[C@H](C)[C@H](NC(=O)[C@@H](N)Cc1ccccc1)C(=O)N[C@@H](CCCN=C(N)N)C(=O)N[C@@H](Cc1c[nH]c2ccccc12)C(=O)N[C@@H](CCCN=C(N)N)C(=O)N[C@@H](Cc1ccccc1)C(=O)N[C@@H](CCCN=C(N)N)C(=O)N[C@@H](Cc1c[nH]c2ccccc12)C(=O)N[C@@H](Cc1c[nH]c2ccccc12)C(=O)N[C@@H](CCCN=C(N)N)C(=O)N[C@@H](Cc1c[nH]c2ccccc12)C(=O)N[C@@H](CCCN=C(N)N)C(=O)N[C@@H](CCCN=C(N)N)C(N)=O` [FIRWRFRWWRWRR] displayed a minimum inhibitory concentration (MIC) in experiment [9] of 2.85 µM (≈ 6 µg/mL).

Consider `CC[C@H](C)[C@H](NC(=O)[C@H](CCCCN)NC(=O)[C@H](Cc1c[nH]c2ccccc12)NC(=O)[C@H](CCCCN)NC(=O)[C@@H](N)CCCCN)C(=O)N[C@H](C(=O)N[C@H](C(=O)N[C@H](C(=O)N[C@@H](CCCCN)C(=O)N[C@@H](Cc1c[nH]c2ccccc12)C(=O)N[C@@H](CCCCN)C(=O)N[C@@H](CCCCN)C(N)=O)[C@@H](C)CC)C(C)C)C(C)C` [KKWKIVVIKWKK], for which, in experiment [9], the minimum inhibitory concentration (MIC) stood at 2.53 µM (≈ 4 µg/mL).

`NCCCC[C@H](NC(=O)CNC(=O)[C@H](CC(N)=O)NC(=O)[C@H](CCCCN)NC(=O)[C@H](Cc1c[nH]c2ccccc12)NC(=O)[C@H](CCCCN)NC(=O)[C@H](Cc1c[nH]c2ccccc12)NC(=O)[C@H](CCCCN)NC(=O)[C@@H](N)Cc1c[nH]c2ccccc12)C(=O)N[C@@H](Cc1c[nH]c2ccccc12)C(=O)N[C@@H](CCCCN)C(=O)N[C@@H](Cc1c[nH]c2ccccc12)C(=O)N[C@@H](CCCCN)C(=O)N[C@@H](Cc1c[nH]c2ccccc12)C(=O)O` [WKWKWKNGKWKWKW]: the minimal inhibitory concentration (MIC) in experiment [10] was 32 µM (≈ 66.4 µg/mL); in [11], 16 µM (≈ 33.2 µg/mL); in experiment [12], 4 µM (≈ 8.3 µg/mL); in experiment [6], 2 µM (≈ 4.15 µg/mL); in experiment [13], 8 µM (≈ 16.6 µg/mL); in experiment [14], 4 µM (≈ 8.3 µg/mL).

On to `NCCCC[C@H](NC(=O)[C@H](CCCCN)NC(=O)[C@H](Cc1c[nH]c2ccccc12)NC(=O)[C@H](CCCCN)NC(=O)[C@H](Cc1c[nH]c2ccccc12)NC(=O)[C@H](Cc1c[nH]c2ccccc12)NC(=O)[C@@H](N)CCCCN)C(N)=O` [KWWKWKK], for which, in [9], the MIC is at least 229 µM.

On to `CC[C@H](C)[C@H](NC(=O)CNC(=O)[C@H](CO)NC(=O)[C@H](C)NC(=O)[C@@H](NC(=O)[C@H](Cc1cnc[nH]1)NC(=O)[C@@H]1CCCN1C(=O)[C@@H](NC(=O)[C@H](CC(C)C)NC(=O)[C@H](CO)NC(=O)[C@H](CC(C)C)NC(=O)[C@@H](N)Cc1ccccc1)[C@@H](C)CC)[C@@H](C)CC)C(=O)N[C@@H](C)C(=O)N[C@@H](CO)C(=O)N[C@@H](CC(C)C)C(=O)N[C@H](C(=O)N[C@@H](CCCCN)C(=O)N[C@@H](CC(N)=O)C(=O)N[C@@H](Cc1ccccc1)C(N)=O)C(C)C` [FLSLIPHIASGIASLVKNF], for which the figures for the minimal inhibitory concentration (MIC) in experiment [1], in experiment [2] and in [3] were 5 µM (≈ 10.1 µg/mL), at least 200 µM and 20 µM (≈ 40.5 µg/mL), respectively.

As for `CC[C@H](C)[C@H](NC(=O)[C@H](CCCN=C(N)N)NC(=O)[C@H](CCCN=C(N)N)NC(=O)[C@@H]1CCCN1C(=O)[C@H](Cc1c[nH]c2ccccc12)NC(=O)[C@H](CCCN=C(N)N)NC(=O)[C@@H]1CCCN1C(=O)[C@H](CCCN=C(N)N)NC(=O)[C@@H]1CCCN1C(=O)[C@H](CC(C)C)NC(=O)[C@H](Cc1ccc(O)cc1)NC(=O)[C@@H]1CCCN1C(=O)[C@@H]1CCCN1C(=O)[C@H](CCCCN)NC(=O)[C@H](CC(=O)O)NC(=O)[C@@H](N)C(C)C)C(=O)N[C@@H](Cc1ccc(O)cc1)C(=O)N[C@@H](CC(N)=O)C(=O)N[C@@H](CCCN=C(N)N)C(=O)NCC(=O)O` [VDKPPYLPRPRWPRRIYNRG], the MIC in experiment [9] is 0.0591 µM (≈ 0.15 µg/mL).

With `CC[C@H](C)[C@H](NC(=O)[C@H](CO)NC(=O)[C@H](CC(N)=O)NC(=O)[C@@H](NC(=O)[C@H](Cc1ccccc1)NC(=O)[C@H](C)NC(=O)[C@H](CO)NC(=O)[C@H](C)NC(=O)[C@H](Cc1ccccc1)NC(=O)[C@H](CC(=O)O)NC(=O)[C@H](CCCCN)NC(=O)[C@H](C)NC(=O)CNC(=O)[C@@H](NC(=O)[C@H](CCCCN)NC(=O)[C@H](CC(C)C)NC(=O)[C@H](CCCCN)NC(=O)[C@H](CCC(=O)O)NC(=O)[C@H](CC(C)C)NC(=O)[C@H](Cc1ccccc1)NC(=O)CN)[C@@H](C)O)C(C)C)C(=O)N[C@@H](CCCCN)C(N)=O` [GFLEKLKTGAKDFASAFVNSIK], the MIC in [1] is at least 216 µM; in experiment [2], at least 54 µM; in [3], at least 108 µM.
